Test results as given in patent US11179380B2, “Compounds and compositions for use in treating psoriasis” (SOLVOTRIN THERAPEUTICS LTD, priority 2017, dated 2021).
Read-outs that look alike come from different tables or passages of the source.

Columns and labels:
[1] = test system: Aldara-treated mice; test: Aldara-induced model of psoriasis in mice, clinical scoring (PASI); type: in vivo, mice (C57BL/6J); conditions: for PASI scores: relative to Vehicle; for inflammation in the mouse psoriasis model: summary statement in RESULTS
Method: Specific Pathogen-Free female C57BL/6J strain mice, 6-8 weeks of age, were obtained from a commercial supplier and bred in-house (JAX, Charles River). Mice were fed irradiated diet and housed in individually ventilated cages (Tecniplast, UK) under positive pressure. All animal experiments were performed in compliance with the Health Products Regulatory Authority and approved by the Trinity College Dublin's BioResources ethical review board.
The Aldara-induced model of psoriasis was used (Flutter and Nestle, 2013; Morwietz, 2015; Russell et al., 2013; van der Fits et al., 2009). The dorsal skin of mice was shaved and depilated on day −1. Mice were that were in the telogen phase (resting phase) of the hair cycle were chosen for experiments. Mice with visual skin damage from shaving were excluded. Mice were then randomly divided into groups for treatment with topical application of vehicle (white petroleum jelly) or Solvotrin test compounds, prepared in white petroleum jelly. On day 0, mice were scored for disease signs, as per below. After which 62.5 mg of Aldara™ cream (5% Imiquimod; MEDA Pharmaceuticals) was applied to a defined area of the shaved dorsal skin surface. Thirty minutes after the Aldara application, test compounds or vehicle was applied to the dorsal flank, to cover the entire Aldara-challenged surface, with an even layer of the white petroleum. This process was repeated for a further 5 days. Mice were scored daily. On day 6 the mice were euthanized for tissue collection.
The skin of mice was scored for signs of psoriasis-like inflammation for a total of 7 days, (i.e. days 0-6), as described (van der Fits et al., 2009). Mice were scored according to 3 parameters: erythema (the redness of skin); thickening of the skin; and scaling (dryness and flaking of the skin). For each parameter, the mice were scored on a scale from 0-4. Mice with no pathology were scored 0. Mice with mild pathology scored 1. […] The total, or Psoriasis Area and Severity Index (PASI), score was the cumulative score of all three parameters. Therefore for each mouse studied the PASI score can range between 0 to 12.
Power calculations on data from previous studies have shown that a sample size of at least 6 will detect significant difference (P<0.05) in PASI scores between groups. ANOVA and Dunnett Multiple Comparison Test determined statistical differences between multiple groups. Two tailed Student's t-test was used to compare statistical differences between two groups.
Unless otherwise specified percentage concentration of a test compound in a composition refers to the weight percent of said test compound in the composition. For example, application of 2% compound X, means application of a composition comprising 2 weight percent of compound X.

[2] = Log P from reversed-phase TLC Rf/Rm values (MeOH in water mobile phases); conditions: for Rm: calculated from Rf
Method: The partition coefficient (P) is used to describe the lipophilicity of a drug. It is defined as the ratio of equilibrium concentrations of a drug in an organic phase (Corg) and an aqueous phase (Caq).
Most commonly the organic solvent is n-octanol and the other solvent is water. Hydrophobic molecules will have a high P value while hydrophilic molecules will have a low P value.
Rm values were calculated from Rf values that were obtained at three different mobile phase compositions (40, 50 and 60% MeOH in water).
The Rm value was calculated using the following equation: […]
The theoretical Rm value at 0% organic modifier was calculated by extrapolating from the calibration curves that were obtained. These values were then correlated to the literature log P of two reference compounds (methyl benzoate and paracetamol).

[3] = test system: IMQ on mouse skin; conditions: topical; cited from earlier work
[4] = test system: normal healthy skin; test: Assessment of erythema and itchiness after topical application to shaved forearm; type: in vivo
Method: Test article dispersed in petroleum jelly was applied to a 2×2 cm patch of shaved forearm (n=3). At specified time intervals the degree of erythema was recorded by blinded observers on a scale of 1-4 (n=3). Itchiness was observed by scratching behaviour also by blinded observers on a scale of 1-4. The time course of erythema resolution was recorded at 30 minute intervals.

[5] = literature log P of reference compounds; cited from earlier work
[6] = in petroleum jelly (concentration not given), vs Vehicle
[7] = theoretical Rm at 0% organic modifier
[8] = 3% in petroleum jelly, statistically significant (P<0.05) only on day 3
[9] = 3% in petroleum jelly, vs Vehicle

Row | Structure (SMILES) | Rf ([2]; 40% MeOH in water) | Rm ([2]; 40% MeOH in water) | Rf ([2]; 50% MeOH in water) | Rm ([2]; 50% MeOH in water) | Rf ([2]; 60% MeOH in water) | Rm ([2]; 60% MeOH in water) | Extrapolated Rm (y value) [2] | Log P (calculated) [2] | further results
1 | O=C(O[C@@H]1CO[C@H]2[C@@H]1OC[C@@H]2OC(=O)c1ccccc1O)c1cccnc1 [ST0702Sal, Isosorbide-2-salicylate-5-nicotinate] |  |  |  |  |  |  |  |  | PASI scores ([1]; in petroleum jelly (concentration not given), days 4, 5 and 6): significantly reduced; Aldara-induced scaling [1, 6]: significantly (P<0.001) reduced; erythema [1, 6]: not altered; skin thickness [1, 6]: not altered
2 | O=[N+]([O-])O[C@@H]1CO[C@H]2[C@@H]1OC[C@@H]2O [ISMN, isosorbide mononitrate, reference compound] | 0.6060 | −0.1870 | 0.6530 | −0.2746 | 0.7000 | −0.3680 |  |  | Log P (calculated) ([2]; from extrapolated Rm correlated to literature log P of methyl benzoate and paracetamol): −0.333; Extrapolated Rm (y value) [2, 7]: 0.176
3 | C[C@H]1C[C@H]2[C@@H]3CCC4=CC(=O)C=C[C@]4(C)[C@@]3(F)[C@@H](O)C[C@]2(C)[C@@]1(O)C(=O)CCl [clobetesol] |  |  |  |  |  |  |  |  | thickness reduction [3]: best
4 | CC(=O)OC1COC2C(OC(=O)c3cccnc3)COC12 (centres unmarked) [Isosorbide-2-Acetate-5-nicotinate, Isosorbide 2-acetate-5-nicotinate] | 0.2860 | 0.3973 | 0.3730 | 0.2256 | 0.5200 | −0.0348 | 1.2763 | 1.3369 | 
5 | O=C(O)c1ccccc1O [salicylic acid] |  |  |  |  |  |  |  |  | cumulative irritancy score (irritancy/erythema) ([4]; 2%): did cause erythema
6 | O=C(OC1COC2C(OC(=O)c3cccnc3)COC12)c1ccccc1 (centres unmarked) [Isosorbide-2-Benzoate-5-nicotinate, Isosorbide 2-benzoate-5-nicotinate] | 0.0260 | 1.5736 | 0.0870 | 1.0210 | 0.2060 | 0.5860 | 3.5292 | 4.7555 | 
7 | CCC(=O)OC1COC2C(OC(=O)c3cccnc3)COC12 (centres unmarked) [Isosorbide-2-Propionate-5-nicotinate, Isosorbide 2-propionate-5-nicotinate] | 0.1600 | 0.7202 | 0.2730 | 0.4254 | 0.4400 | 0.1047 | 1.9553 | 2.367 | 
8 | O=C(O)c1cccnc1 [niacin] |  |  |  |  |  |  |  |  | temporal erythema response ([4]; 5% in petroleum jelly): persisted in the niacin case up to six hours; skin irritation ([4]; in vivo): causes skin irritation
9 | CC(=O)Oc1ccccc1C(=O)O[C@H]1CO[C@H]2[C@@H]1OC[C@H]2OC(=O)c1ccncc1 [ST0703, Isosorbide-2-aspirinate-5-isonicotinate] |  |  |  |  |  |  |  |  | PASI scores [1, 8]: reduced the PASI scores; erythema [1, 9]: reduced levels of elevated skin thickness and erythema; skin thickness [1, 9]: reduced levels of elevated skin thickness; inflammation in the mouse psoriasis model [1]: did not inhibit inflammation
10 | CC(=O)Nc1ccc(O)cc1 [Paracetamol, paracetamol, reference compound] | 0.5460 | −0.0801 | 0.6270 | −0.2256 | 0.7460 | −0.4679 |  |  | Extrapolated Rm (y value) [2, 7]: 0.7116; Log P (ref) [5]: 0.48 (2)
11 | CCCCC(=O)O[C@H]1CO[C@H]2[C@@H]1OC[C@H]2OC(=O)c1cccnc1 [Isosorbide-2-Valeroate-5-nicotinate, Isosorbide 2-valeroate-5-nicotinate] | 0.0530 | 1.2521 | 0.1200 | 0.8653 | 0.2730 | 0.4254 | 2.9143 | 3.8225 | 
12 | CCOC(=O)c1ccc(C#Cc2ccc3c(c2)C(C)(C)CCS3)nc1 [tazarotene] |  |  |  |  |  |  |  |  | IMQ-induced increased thickness of epidermal and subcutaneous tissue [3]: exacerbated; thickness reduction [3]: ineffective
13 | CC(=O)Oc1ccccc1C(=O)OC1COC2C(OC(=O)c3ccccc3O)COC12 (centres unmarked) [ST0701, Isosorbide-2-aspirinate-5-salicylate] |  |  |  |  |  |  |  |  | PASI scores [1, 8]: reduced the PASI scores; erythema [1, 9]: reduced levels of elevated skin thickness and erythema; skin thickness [1, 9]: reduced levels of elevated skin thickness; inflammation in the mouse psoriasis model [1]: did not inhibit inflammation
14 | CCCC(=O)O[C@H]1CO[C@H]2[C@@H]1OC[C@H]2OC(=O)c1cccnc1 [Isosorbide-2-Butyrate-5-nicotinate, Isosorbide 2-butyrate-5-nicotinate] | 0.1060 | 0.9260 | 0.2067 | 0.5841 | 0.3530 | 0.2631 | 2.2483 | 2.8118 | 
15 | C=C1/C(=C\C=C2/CCC[C@]3(C)[C@@H]([C@H](C)/C=C/[C@@H](O)C4CC4)CC[C@@H]23)C[C@@H](O)C[C@@H]1O [calcipotriol] |  |  |  |  |  |  |  |  | cumulative irritancy score (irritancy/erythema) ([4]; 0.005%): did cause erythema; IMQ-induced increased thickness of epidermal and subcutaneous tissue [3]: exacerbated; thickness reduction [3]: ineffective
16 | COC(=O)c1ccccc1 [Methyl Benzoate, methyl benzoate, reference compound] | 0.1460 | 0.7671 | 0.1867 | 0.6391 | 0.3600 | 0.2499 |  | 2.2 | Extrapolated Rm (y value) [2, 7]: 1.845; Log P (ref) [5]: 2.2 (1)
